Measured values as given in patent US11981673B1, “7-isopropyl 1,2-dimethyl 3-(substituted benzoyl)indolizine-1,2,7 tricarboxylates as adenosine receptor active compounds” (KING FAISAL UNIVERSITY, priority 2023, dated 2024).

What was measured:
hA2BR = biological target: T1, hA2BR (Homo sapiens, UniProt P29275); assay: Inhibition of NECA-stimulated adenylyl cyclase activity in CHO cells expressing hA2BR (GloSensor cAMP assay); type: cell-based; conditions: means ± SE
T1 construct: expressed in transfected cells; host or cells: cells stably expressing the receptor and the GloSensor biosensor (CHO)
T1 sequence (P29275 1-332): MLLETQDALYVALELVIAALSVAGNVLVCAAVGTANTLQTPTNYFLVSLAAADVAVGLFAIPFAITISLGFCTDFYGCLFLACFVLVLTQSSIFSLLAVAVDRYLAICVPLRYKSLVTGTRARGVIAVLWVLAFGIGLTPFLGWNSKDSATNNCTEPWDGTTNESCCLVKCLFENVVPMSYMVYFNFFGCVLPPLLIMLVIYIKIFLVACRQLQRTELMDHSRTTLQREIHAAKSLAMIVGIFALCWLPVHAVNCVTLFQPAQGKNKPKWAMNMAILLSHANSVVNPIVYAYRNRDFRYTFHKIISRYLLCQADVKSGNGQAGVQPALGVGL
Method: The activity of compounds understudy was evaluated using the GloSensor™ (Promega Corporation) cAMP assay, which is a new non-radioactive method offering a simple approach to monitor GPCR activity through change in the intracellular cAMP concentration. This assay uses a mutant form of Photinus pyralis luciferase into which a cAMP-binding protein moiety has been inserted. The binding with cAMP triggers a biosensor conformational change that leads to an increase of light output allowing to evaluate the activity of ligands at the receptor under study. Following pre-equilibration with a substrate, cells stably expressing both the receptor of interest and the biosensor can be used to evaluate GPCR function enabling easy kinetic measurements of cAMP accumulation or turnover in living cells.
The antagonist profile of the compounds on A2BR was evaluated by assessing their ability to counteract the agonist NECA-induced increase of cAMP accumulation. After 2 hours of equilibration in reaction medium cells were incubated in 384 well plate (10 minutes at room temperature) with 3 μL of different antagonist concentrations and then treated with 3 μL of a fixed dose of NECA. After another 10 minutes of incubation various luminescence reads were performed at different incubation times.

human A2AR = biological target: T2, human A2AR (Homo sapiens, UniProt P29274); assay: Displacement of specific [3H]-NECA binding at human A2AR expressed in CHO cells; conditions: [3H]-NECA displacement, means ± SE, read-out: hA2AR (Ki nM)
T2 construct: expressed in transfected cells; host or cells: CHO cells

human A1R = biological target: T3, human A1R (Homo sapiens, UniProt P30542); assay: Displacement of specific [3H]-CCPA binding at human A1R expressed in CHO cells; conditions: [3H]-CCPA displacement, means ± SE, read-out: hA1R (Ki nM)
T3 construct: expressed in transfected cells; host or cells: CHO cells
T3 sequence (P30542 1-326): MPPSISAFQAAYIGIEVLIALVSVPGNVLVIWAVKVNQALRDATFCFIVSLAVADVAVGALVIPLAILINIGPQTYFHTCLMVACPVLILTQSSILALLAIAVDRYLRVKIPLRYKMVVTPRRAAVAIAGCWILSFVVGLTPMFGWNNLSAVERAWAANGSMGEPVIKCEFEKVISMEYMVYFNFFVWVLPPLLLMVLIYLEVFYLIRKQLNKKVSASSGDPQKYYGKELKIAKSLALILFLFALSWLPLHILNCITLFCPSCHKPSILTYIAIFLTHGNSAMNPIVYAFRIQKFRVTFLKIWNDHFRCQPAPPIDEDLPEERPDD

human A3R = biological target: T4, human A3R (Homo sapiens, UniProt P0DMS8); assay: Displacement of specific [3H]-HEMADO binding at human A3R expressed in CHO cells; conditions: [3H]-HEMADO displacement, means ± SE, read-out: hA3R (Ki nM)
T4 construct: expressed in transfected cells; host or cells: CHO cells
T4 sequence (P0DMS8 1-318): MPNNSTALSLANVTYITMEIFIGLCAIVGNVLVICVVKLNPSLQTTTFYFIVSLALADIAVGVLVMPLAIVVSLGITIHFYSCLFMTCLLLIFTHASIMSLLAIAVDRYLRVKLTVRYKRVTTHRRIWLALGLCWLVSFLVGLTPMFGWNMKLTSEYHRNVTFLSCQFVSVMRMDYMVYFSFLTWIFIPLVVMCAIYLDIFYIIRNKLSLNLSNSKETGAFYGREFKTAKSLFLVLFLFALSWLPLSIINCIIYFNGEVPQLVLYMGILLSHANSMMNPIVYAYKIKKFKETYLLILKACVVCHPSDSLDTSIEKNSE

T2 sequence (P29274 whole entry): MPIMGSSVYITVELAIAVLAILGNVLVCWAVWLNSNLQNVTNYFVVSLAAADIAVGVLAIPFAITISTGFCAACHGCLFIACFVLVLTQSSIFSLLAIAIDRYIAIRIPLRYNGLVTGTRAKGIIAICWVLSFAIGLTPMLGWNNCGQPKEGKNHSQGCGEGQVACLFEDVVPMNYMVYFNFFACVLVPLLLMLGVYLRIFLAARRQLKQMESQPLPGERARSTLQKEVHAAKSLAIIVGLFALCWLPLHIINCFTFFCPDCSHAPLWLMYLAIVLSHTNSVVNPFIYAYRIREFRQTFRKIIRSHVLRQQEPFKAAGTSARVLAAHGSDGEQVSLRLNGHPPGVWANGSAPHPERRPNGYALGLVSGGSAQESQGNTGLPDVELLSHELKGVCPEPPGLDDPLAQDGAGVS

IC50 (hA2BR) [nM]	Ki (human A2AR) [nM]	Ki (human A1R) [nM]	Ki (human A3R) [nM]	SMILES
> 30000	2690 ± 631	1640 ± 37	2200 ± 313	COC(=O)c1c(C(=O)OC)c2cc(C(=O)OC(C)C)ccn2c1C(=O)c1ccccc1 [KNV-ISP1, 7-Isopropyl 1,2-dimethyl 3-benzoylindolizine-1,2,7-tricarboxylate]
> 30000	> 30000	7050 ± 706	3640 ± 837	CCOC(=O)c1cc(C(=O)c2ccccc2)n2ccc(C(=O)OC(C)C)cc12 [KNV-ISP2, 1-Ethyl 7-isopropyl 3-benzoylindolizine-1,7-dicarboxylate]
> 30000	3950 ± 695	2710 ± 388	1400 ± 348	COC(=O)c1c(C(=O)OC)c2cc(C(=O)OC(C)C)ccn2c1C(=O)c1ccc(F)cc1 [KNV-ISP3, 7-Isopropyl 1,2-dimethyl 3-(4-fluorobenzoyl)indolizine-1,2,7-tricarboxylate]
> 30000	> 30000	6980 ± 577	665 ± 26	CCOC(=O)c1cc(C(=O)c2ccc(F)cc2)n2ccc(C(=O)OC(C)C)cc12 [KNV-ISP4, 1-Ethyl 7-isopropyl 3-(4-fluorobenzoyl)indolizine-1,7-dicarboxylate]
> 30000	7400 ± 833	3712 ± 12	7597 ± 29	COC(=O)c1c(C(=O)OC)c2cc(C(=O)OC(C)C)ccn2c1C(=O)c1ccc(Cl)cc1 [KNV-ISP5, 7-Isopropyl 1,2-dimethyl 3-(4-chlorobenzoyl)indolizine-1,2,7-tricarboxylate]
> 30000	> 30000	> 30000	14300 ± 480	CCOC(=O)c1cc(C(=O)c2ccc(Cl)cc2)n2ccc(C(=O)OC(C)C)cc12 [KNV-ISP6, 1-Ethyl 7-isopropyl 3-(4-chlorobenzoyl)indolizine-1,7-dicarboxylate]
> 30000	14900 ± 3750	5410 ± 711	1220 ± 339	COC(=O)c1c(C(=O)OC)c2cc(C(=O)OC(C)C)ccn2c1C(=O)c1ccc(Br)cc1 [KNV-ISP7, 7-Isopropyl 1,2-dimethyl 3-(4-bromobenzoyl)indolizine-1,2,7-tricarboxylate]
> 30000	> 30000	> 30000	1680 ± 283	CCOC(=O)c1cc(C(=O)c2ccc(Br)cc2)n2ccc(C(=O)OC(C)C)cc12 [KNV-ISP8, 1-Ethyl 7-isopropyl 3-(4-bromobenzoyl)indolizine-1,7-dicarboxylate]
> 30000	10300 ± 1340	> 30000	6210 ± 338	COC(=O)c1c(C(=O)OC)c2cc(C(=O)OC(C)C)ccn2c1C(=O)c1ccc(C#N)cc1 [KNV-ISP9, 7-Isopropyl 1,2-dimethyl 3-(4-cyanobenzoyl)indolizine-1,2,7-tricarboxylate]
> 30000	> 30000	> 30000	7670 ± 1730	CCOC(=O)c1cc(C(=O)c2ccc(C#N)cc2)n2ccc(C(=O)OC(C)C)cc12 [KNV-ISP10, 1-Ethyl 7-isopropyl 3-(4-cyanobenzoyl)indolizine-1,7-dicarboxylate]
> 30000	2921 ± 13	692 ± 41	1600 ± 14	COC(=O)c1c(C(=O)OC)c2cc(C(=O)OC(C)C)ccn2c1C(=O)c1ccc(C)cc1 [KNV-ISP11, 7-Isopropyl 1,2-dimethyl 3-(4-methylbenzoyl)indolizine-1,2,7-tricarboxylate]
